23 compounds from US10287300B2 (Merck Patent GmbH, priority 2012, dated 2019) can be followed below.

Molecules are shown by their SMILES.

One experiment deals with His-AKT (Full Length) (Homo sapiens (Human), UniProt P31749). Description: AKT enzyme assay. The experiment is classed as biochemical. As to conditions: 160 uM ATP, 90 min at 25° C. How it is done: A TTP Mosquito liquid handling instrument was used to place 125 nl of the appropriate concentration of inhibitor in 100% DMSO (for a dose response curve calculation) into each well of a 384-well plate. To this reaction components were added to a final volume of 12.5 μl: • 0.1 ng/μl His-AKT (Full Length), (Invitrogen, Part # P2999, Lot #641228C). • 160 uM ATP (Fluka, 02055) • 1 mM DTT (Sigma, D0632) • 1 mM MgCl2 (Sigma, M1028) • 1 μM substrate peptide (sequence FITC-AHA-GRPRTSSFAEG-NH2), • synthesized by Tufts Peptide Synthesis service. • 100 mM HEPES pH 7.5 (Calbiochem, 391338) • 0.015% Brij-35 (Sigma, B4184)
The reaction was incubated for 90 min at 25° C., and then stopped by the addition of 70 μl of Stop buffer (100 mM HEPES pH 7.5, 0.015% Brij-35, 10 mM EDTA (Sigma, E7889)).
The plate was read on a Caliper LC 3000 in an Off-Chip mobility shift assay format, using the following parameters for a 12-sipper chip: screening pressure −2.3 psi, upstream voltage −500, and downstream voltage −3000. These conditions caused unphosphorylated substrate and phosphorylated product peptide to resolve as separate peaks allowing direct measurement of percentage of conversion of substrate to product. The percent conversion was plotted against concentration of inhibitor to produce a sigmoidal dose response curve, from which an IC50 was calculated.

Experiment [1] addresses P70S6K (T412E mutant, Millipore) (Homo sapiens (Human), UniProt P23443, T412E). Description: P70S6K enzyme assay. The class given is biochemical. Conditions: 24 μM ATP, 90 min at 25° C. The protocol: P70S6K inhibitor compounds were diluted and plated in 96 well plates. A reaction mixture including the following components was then added to the compound plate to initiate the enzyme reaction; P70S6K (3 nM, T412E mutant, Millipore) was mixed with 24 μM ATP in an assay buffer containing 100 mM Hepes (pH 7.5), 5 mM MgCl2, 1 mM DTT, 0.015% Brij and 1 μM of the substrate peptide FITC-AHA-AKRRRLSSLRA-OH (derived from the S6 ribosomal protein sequence, FITC=fluorescein isothiocyanate, AHA=6-aminohexanoic acid). The reaction was incubated for 90 min at 25° C., before the addition of 10 mM EDTA to stop the reaction. The proportion of substrate and product (phosphorylated) peptide was analysed on a Caliper Life Sciences Lab Chip 3000, using a pressure of −1.4 psi, and upstream and downstream voltages of −3000 and −700 respectively. Product peaks were resolved before substrate peaks on the resulting chromatograms.

Chain of P70S6K (T412E mutant, Millipore) (P23443 whole entry T412E): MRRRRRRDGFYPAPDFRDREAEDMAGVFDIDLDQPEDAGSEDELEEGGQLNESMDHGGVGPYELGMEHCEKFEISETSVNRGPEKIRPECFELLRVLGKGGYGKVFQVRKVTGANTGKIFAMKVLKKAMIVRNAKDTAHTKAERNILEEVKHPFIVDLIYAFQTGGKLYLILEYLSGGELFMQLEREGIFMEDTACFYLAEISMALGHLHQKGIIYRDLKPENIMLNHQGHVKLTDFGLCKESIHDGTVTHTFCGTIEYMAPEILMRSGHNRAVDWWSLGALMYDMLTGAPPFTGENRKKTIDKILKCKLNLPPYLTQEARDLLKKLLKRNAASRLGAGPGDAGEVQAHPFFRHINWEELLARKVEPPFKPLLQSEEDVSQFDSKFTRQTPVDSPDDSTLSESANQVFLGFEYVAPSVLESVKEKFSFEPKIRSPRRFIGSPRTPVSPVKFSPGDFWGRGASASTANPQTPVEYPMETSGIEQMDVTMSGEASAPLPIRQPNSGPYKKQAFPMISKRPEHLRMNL
Chain of His-AKT (Full Length) (P31749 whole entry): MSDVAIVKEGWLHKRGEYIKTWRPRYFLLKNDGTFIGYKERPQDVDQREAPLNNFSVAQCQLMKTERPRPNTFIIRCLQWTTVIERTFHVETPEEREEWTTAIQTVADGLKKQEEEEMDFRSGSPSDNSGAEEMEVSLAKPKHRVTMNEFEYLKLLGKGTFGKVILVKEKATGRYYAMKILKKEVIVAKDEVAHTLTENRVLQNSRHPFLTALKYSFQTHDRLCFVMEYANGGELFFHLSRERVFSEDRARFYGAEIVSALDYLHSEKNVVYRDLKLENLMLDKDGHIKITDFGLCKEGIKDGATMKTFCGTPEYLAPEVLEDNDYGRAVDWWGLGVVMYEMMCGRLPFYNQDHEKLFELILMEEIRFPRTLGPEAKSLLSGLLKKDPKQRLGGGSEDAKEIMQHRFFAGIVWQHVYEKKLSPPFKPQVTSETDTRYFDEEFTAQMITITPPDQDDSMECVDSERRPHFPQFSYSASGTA

`CN(C)CC(c1ccc(Cl)cc1)N1CCN(c2ncnc3c2NC(=O)CN3)CC1` (stereo not shown) [Compound A26, 4-{4-[2-dimethylamino-1-(4-chloro-phenyl)-ethyl]-piperazin-1-yl}-7,8-dihydro-5H-pteridin-6-one]: the results for the IC50 (against His-AKT (Full Length); in experiment [1]) were 0.101 to 0.5 µM and 0.501 to 1 µM, respectively.
In the same order, the values of `CN(C)CC(c1cccc(Cl)c1)N1CCN(c2ncnc3c2NC(=O)CN3)CC1` (stereo not shown) [Compound A27, 4-{4-[2-dimethylamino-1-(3-chloro-phenyl)-ethyl]-piperazin-1-yl}-7,8-dihydro-5H-pteridin-6-one] are more than 1 µM and more than 1 µM.
The like results for `CN(C)CC(c1ccc(C(F)(F)F)cc1)N1CCN(c2ncnc3c2NC(=O)CN3)CC1` (stereo not shown) [Compound A28, 4-{4-[2-dimethylamino-1-(4-trifluoromethyl-phenyl)-ethyl]-piperazin-1-yl}-7,8-dihydro-5H-pteridin-6-one] were, in that order, 0.101 to 0.5 µM and 0.501 to 1 µM.
In the same order, the values of `O=C1CNc2ncnc(N3CCN(C(CN4CCCC4)c4ccc(F)cc4)CC3)c2N1` (stereo not shown) [Compound A29, 4-{4-[1-(4-fluoro-phenyl)-2-(pyrrolidin-yl)-ethyl]-piperazin-1-yl}-7,8-dihydro-5H-pteridin-6-one] are more than 1 µM and more than 1 µM.
On to `O=C1CNc2ncnc(N3CCN(C(CN4CCCC4)c4ccc(Cl)cc4)CC3)c2N1` (stereo not shown) [Compound A30, 4-{4-[1-(4-chloro-phenyl)-2-(pyrrolidin-yl)-ethyl]-piperazin-1-yl}-7,8-dihydro-5H-pteridin-6-one], for which the IC50 (at His-AKT (Full Length); in experiment [1]) was 0.501 to 1 µM each time.
For the compound `O=C1CNc2ncnc(N3CCN(C(CN4CCCCC4)c4ccc(F)cc4)CC3)c2N1` (stereo not shown) [Compound A31, 4-{4-[1-(4-fluoro-phenyl)-2-(piperidin-yl)-ethyl]-piperazin-1-yl}-7,8-dihydro-5H-pteridin-6-one], the IC50 (at His-AKT (Full Length); in experiment [1]) was more than 1 µM each time.
`O=C1CNc2ncnc(N3CCN(C(CN4CCCCC4)c4ccc(Cl)cc4)CC3)c2N1` (stereo not shown) [Compound A32, 4-{4-[1-(4-chloro-phenyl)-2-(piperidin-yl)-ethyl]-piperazin-1-yl}-7,8-dihydro-5H-pteridin-6-one]: the IC50 is 0.501 to 1 µM on His-AKT (Full Length) and more than 1 µM in experiment [1].
In the same order, the values of `O=C1CNc2ncnc(N3CCN(C(CN4CCCCC4)c4ccc(C(F)(F)F)cc4)CC3)c2N1` (stereo not shown) [Compound A33, 4-{4-[1-(4-trifluoro-phenyl)-2-(piperidin-yl)-ethyl]-piperazin-1-yl}-7,8-dihydro-5H-pteridin-6-one] are 0.501 to 1 µM and more than 1 µM.
For `O=C1CNc2ncnc(N3CCN(C(CN4CCCC4)c4ccc(C(F)(F)F)cc4)CC3)c2N1` (stereo not shown) [Compound A34, 4-{4-[2-Pyrrolidin-1-yl-1-(4-trifluoromethyl-phenyl)-ethyl]-piperazin-1-yl}-7,8-dihydro-5H-pteridin-6-one], the IC50 (on His-AKT (Full Length); in experiment [1]) was more than 1 µM in each case.
As to `O=C1CNc2ncnc(N3CCN(C(CN4CCCC4)c4ccccc4F)CC3)c2N1` (stereo not shown) [Compound A35, 4-(4-(1-(2-fluorophenyl)-2-(pyrrolidin-1-yl)ethyl)piperazin-1-yl)-7,8-dihydropteridin-6(5H)-one], the IC50 (against His-AKT (Full Length); in experiment [1]) was more than 1 µM in each case.
Consider `CN(C)CC(c1ccccc1F)N1CCN(c2ncnc3c2NC(=O)CN3)CC1` (stereo not shown) [Compound A36, 4-(4-(2-(dimethylamino)-1-(2-fluorophenyl)ethyl)piperazin-1-yl)-7,8-dihydropteridin-6(5H)-one], for which the IC50 (against His-AKT (Full Length); in experiment [1]) was more than 1 µM throughout.
Regarding `O=C1CNc2ncnc(N3CCN(C(CN4CCC4)c4ccccc4F)CC3)c2N1` (stereo not shown) [Compound A37, 4-(4-(2-(azetidin-1-yl)-1-(2-fluorophenyl)ethyl)piperazin-1-yl)-7,8-dihydropteridin-6(5H)-one], the IC50 (against His-AKT (Full Length); in experiment [1]) was more than 1 µM each time.
On to `O=C1CNc2ncnc(N3CCN(C(CN4CCCCC4)c4ccccc4F)CC3)c2N1` (stereo not shown) [Compound A38, 4-(4-(1-(2-fluorophenyl)-2-(piperidin-1-yl)ethyl)piperazin-1-yl)-7,8-dihydropteridin-6(5H)-one], for which the IC50 (against His-AKT (Full Length); in experiment [1]) was more than 1 µM each time.
With `NCC(c1ccccc1Cl)N1CCN(c2ncnc3c2NC(=O)CN3)CC1` (stereo not shown) [Compound A39, 4-(4-(2-amino-1-(2-chlorophenyl)ethyl)piperazin-1-yl)-7,8-dihydropteridin-6(5H)-one], the IC50 (at His-AKT (Full Length); in experiment [1]) was more than 1 µM each time.
For the compound `CN(C)CC(c1ccccc1Cl)N1CCN(c2ncnc3c2NC(=O)CN3)CC1` (stereo not shown) [Compound A40, 4-(4-(1-(2-chlorophenyl)-2-(dimethylamino)ethyl)piperazin-1-yl)-7,8-dihydropteridin-6(5H)-one], the IC50 (against His-AKT (Full Length); in experiment [1]) was more than 1 µM in each case.
In the case of `CNCC(c1ccccc1Cl)N1CCN(c2ncnc3c2NC(=O)CN3)CC1` (stereo not shown) [Compound A41, 4-(4-(1-(2-chlorophenyl)-2-(methylamino)ethyl)piperazin-1-yl)-7,8-dihydropteridin-6(5H)-one], the IC50 (against His-AKT (Full Length); in experiment [1]) was more than 1 µM throughout.
In the case of `O=C1CNc2ncnc(N3CCN(C(CN4CCC4)c4ccccc4Cl)CC3)c2N1` (stereo not shown) [Compound A42, 4-(4-(2-(azetidin-1-yl)-1-(2-chlorophenyl)ethyl)piperazin-1-yl)-7,8-dihydropteridin-6(5H)-one], the half-maximal inhibitory concentration (IC50) (at His-AKT (Full Length); in experiment [1]) was more than 1 µM throughout.
As for `O=C1CNc2ncnc(N3CCN(C(CN4CCCC4)c4ccccc4Cl)CC3)c2N1` (stereo not shown) [Compound A43, 4-(4-(1-(2-chlorophenyl)-2-(pyrrolidin-1-yl)ethyl)piperazin-1-yl)-7,8-dihydropteridin-6(5H)-one], the IC50 (at His-AKT (Full Length); in experiment [1]) was more than 1 µM each time.
For `O=C1CNc2ncnc(N3CCN(C(CN4CCCCC4)c4ccccc4Cl)CC3)c2N1` (stereo not shown) [Compound A44, 4-(4-(1-(2-chlorophenyl)-2-(piperidin-1-yl)ethyl)piperazin-1-yl)-7,8-dihydropteridin-6(5H)-one], the IC50 (against His-AKT (Full Length); in experiment [1]) was more than 1 µM throughout.
Regarding `Cc1ccccc1C(CN(C)C)N1CCN(c2ncnc3c2NC(=O)CN3)CC1` (stereo not shown) [Compound A45, 4-(4-(2-(dimethylamino)-1-(o-tolyl)ethyl)piperazin-1-yl)-7,8-dihydropteridin-6(5H)-one], the IC50 (at His-AKT (Full Length); in experiment [1]) was more than 1 µM each time.
`Cc1ccccc1C(CN1CCCC1)N1CCN(c2ncnc3c2NC(=O)CN3)CC1` (stereo not shown) [Compound A46, 4-(4-(2-(pyrrolidin-1-yl)-1-(o-tolyl)ethyl)piperazin-1-yl)-7,8-dihydropteridin-6(5H)-one]: the IC50 (against His-AKT (Full Length); in experiment [1]) was more than 1 µM throughout.
Turning to `Cc1ccccc1C(CN1CCCCC1)N1CCN(c2ncnc3c2NC(=O)CN3)CC1` (stereo not shown) [Compound A47, 4-(4-(2-(piperidin-1-yl)-1-(o-tolyl)ethyl)piperazin-1-yl)-7,8-dihydropteridin-6(5H)-one], the IC50 (on His-AKT (Full Length); in experiment [1]) was more than 1 µM throughout.
For `NCC(c1ccc(F)c(F)c1)N1CCN(c2ncnc3c2NC(=O)CN3)CC1` (stereo not shown) [Compound A48], the IC50 (on His-AKT (Full Length); in experiment [1]) was more than 1 µM throughout.

The IC50 is the concentration needed to halve the response being measured. A low value points to greater potency.
